These results are taken from ChEMBL document CHEMBL2029230, “Identification, design and biological evaluation of heterocyclic quinolones targeting Plasmodium falciparum type II NADH:quinone oxidoreductase (PfNDH2)” (J Med Chem, 2012).

As a reminder, the CL/F is the apparent clearance, not corrected for the fraction that reaches the circulation. A word on the IC50: it is the point on the concentration scale where inhibition reaches its midpoint. The AUC(0-t) is the area under the concentration-time curve up to a stated or last time point. The term Cmax denotes the peak of the concentration-time curve. Usually ED50 stands for the dose at which the effect has come halfway, by size or by number of responders. In general, CC50 refers to the concentration that lowers cell viability or growth by half. Usually half-life stands for the time in which the quantity being followed falls by half. As a reminder, the Tmax is the time from dosing to the highest level.

Series [1] in a line: Total clearance in rat at 20 mg/kg, po. The following applies: in vivo. The series is classed as ADME, organism-based. Also on record: dose 20 mg/kg, route oral.
The subject of series [2] is Plasmodium falciparum. Description: Antimalarial activity against blood stage forms of Plasmodium falciparum 3D7 infected in human erythrocytes. The series is classed as functional, organism-based.
The nature of series [3]: Inhibition of Plasmodium falciparum cytochrome b-c1 complex using decylubiquinol as substrate by spectrophotometry.
The next series relates to Rattus norvegicus. Description: Volume of distribution in rat at 20 mg/kg, po. Format: ADME, organism-based. Also noted: dose 20 mg/kg, route oral. The following applies: in vivo.
Series [4] in a line: AUC (0 to t) in rat at 20 mg/kg, po. Format: ADME, organism-based. Also on record: dose 20 mg/kg, route oral. The following applies: plasma.
For series [5], the system named is Plasmodium berghei. Description: Antimalarial activity against Plasmodium berghei NS infected in CD1 mouse assessed as decrease in parasitemia at 20 mg/kg, po administered using DET as vehicle measured on day 4. Format: functional. Also on record: scale not given: the % may be the effect or the level left.
Series [6] has as its system Plasmodium falciparum. Description: Antimalarial activity against […]-resistant Plasmodium falciparum TM90C2B containing cytochrome-b Y268S mutant. Format: functional, organism-based.
For series [7], the system named is Plasmodium falciparum. In words: Antimalarial activity against chloroquine-resistant Plasmodium falciparum W2. The series is classed as functional, organism-based.
Another series concerns Liver microsomes. Description: Half life in human liver microsomes at 1 uM. The series is classed as ADME, Microsome.
Series [8] can be described thus: Cmax in rat at 20 mg/kg, po. Also noted: dose 20 mg/kg, route oral. The following applies: in vivo. Format: ADME, organism-based.
The subject of series [9] is Plasmodium berghei. In words: Antimalarial activity against Plasmodium berghei NS infected in po dosed CD1 mouse assessed as decrease in parasitemia measured on day 4. The series is classed as functional. The following applies: 96 h.
Series [10] relates to Plasmodium berghei. Description: Antimalarial activity against Plasmodium berghei NS infected in CD1 mouse assessed as decrease in parasitemia at 20 mg/kg, po administered using SSV as vehicle measured on day 4. Format: functional. Also on record: scale not given: the % may be the effect or the level left.
Another series concerns HepG2. Description: Cytotoxicity against human HepG2 cells. Format: cell-based.
The nature of series [11]: Half life in rat at 20 mg/kg, po. The following applies: in vivo. Also on record: dose 20 mg/kg, route oral. The series is classed as ADME, organism-based.
Series [12] can be described thus: Inhibition of Plasmodium falciparum recombinant NDH2 expressed in Escherichia coli F571 using decyclubiquinone as substrate at 1 min by spectrophotometry.
A short description of series [13]: Metabolic stability in human liver microsomes assessed as compound remaining at 1 uM after 60 mins. Format: ADME, Microsome. The following applies: read-out: Stability.
A short description of series [14]: Tmax in rat at 20 mg/kg, po. Format: ADME, organism-based. Also on record: dose 20 mg/kg, route oral. The following applies: in vivo.
Series [15] deals with Plasmodium berghei. In words: Antimalarial activity against Plasmodium berghei NS infected in CD1 mouse assessed as decrease in parasitemia at 20 mg/kg, po administered using Na2CO3 as vehicle measured on day 4. Format: functional. Also on record: scale not given: the % may be the effect or the level left.

Molecule `Cc1c(-c2ccc(-c3ccc(OC(F)(F)F)cc3)nc2)[nH]c2ccccc2c1=O` showed a CL/F in [1] of 4.61 mL/min/kg. In addition, the IC50 with Plasmodium falciparum [2] worked out at 54 nM; in series [3], 15 nM; in the series on Plasmodium falciparum [6] it was 344 nM; in the series on Plasmodium falciparum [7] it was 50 nM; in series [12], 15 nM. The Vd with Rattus norvegicus amounted to 3.9708 L/kg. The molecule also yielded an AUC(0-t) in series [4] of 69300 ng·h/mL. Besides, the Activity with Plasmodium berghei [5] turned out to be 100%; in the series on Plasmodium berghei [10], 87.5%. This molecule had a t1/2 in the series with Liver microsomes of 1.61 h. Besides, the concentration in series [8] peaked (Cmax) at 3700 ng/mL. In addition, in the series on Plasmodium berghei [9], the 50% effective dose (ED50) was found to be 12.8 mg/kg. For the same molecule, in the series with Plasmodium berghei [9], the ED90 came to 27.3 mg/kg. The CC50 in the series with HepG2 was over 50000 nM. In series [11], the half-life is 9.9 h. Also, the remaining at 1 h, 1 µM in series [13] is 60%. Further, in series [14], the Tmax is 7 h.

As to `Cc1c(-c2ccc(-c3ccc(OC(F)(F)F)cc3)nc2)nc2ccccc2c1OP(=O)(O)O`, the Activity with Plasmodium berghei [15] stood at 100%.
